ChEMBL document CHEMBL5614450, “SAR Study of 4,8-Disubstituted Pyrimido[5,4-d]pyrimidines Exhibiting Antitrypanosomal and Antileishmanial Activity” (ACS Med Chem Lett, 2024)

Assays:
Trypanosoma brucei = test: Anti-trypanosomal activity against trypomastigote blood stage of Trypanosoma brucei Lister 427 assessed as inhibition of parasite growth incubated for 72 hrs by resazurin-dye based assay; assay type: functional, organism-based; conditions: Lister 427, 72 h
[1] = Cytotoxicity against human THP-1 cells assessed as reduction in cell viability incubated for 72 hrs by MTT assay; assay type: toxicity, cell-based
[2] = Selectivity index, ratio of CC50 for cytotoxicity against human THP-1 cells to IC50 for anti-trypanosomal activity against trypomastigote blood stage of Trypanosoma brucei Lister 427; assay type: toxicity, cell-based; conditions: read-out: Ratio CC50/IC50
Leishmania infantum [3] = test: Anti-leishmanial activity against promastigote stage of Leishmania infantum MHOM/MA/67/ITMAP-263 assessed as inhibition of parasite growth at 10 uM incubated for 72 hrs by resazurin-dye based assay; assay type: functional
Leishmania infantum [4] = test: Anti-leishmanial activity against promastigote stage of Leishmania infantum MHOM/MA/67/ITMAP-263 assessed as inhibition of parasite growth incubated for 72 hrs by resazurin-dye based assay; assay type: functional, organism-based; conditions: MHOM/MA/67/ITMAP-263, 72 h
Leishmania infantum [5] = test: Anti-leishmanial activity against luciferase expressing intracellular amastigote stage of Leishmania infantum MHOM/MA/67/ITMAP-263 infected in human THP-1 cells assessed as inhibition of parasite growth at 10 uM incubated for 72 hrs by Steady-Glo luciferase assay; assay type: functional; conditions: MHOM/MA/67/ITMAP-263, THP-1
Leishmania infantum [6] = test: Anti-leishmanial activity against luciferase expressing intracellular amastigote stage of Leishmania infantum MHOM/MA/67/ITMAP-263 infected in human THP-1 cells assessed as inhibition of parasite growth incubated for 72 hrs by Steady-Glo luciferase assay; assay type: functional, organism-based; conditions: MHOM/MA/67/ITMAP-263, THP-1, 72 h
[7] = Selectivity index, ratio of CC50 for cytotoxicity against human THP-1 cells to IC50 for anti-leishmanial activity against promastigote stage of Leishmania infantum MHOM/MA/67/ITMAP-263; assay type: toxicity, cell-based; conditions: read-out: Ratio CC50/IC50
[8] = Selectivity index, ratio of CC50 for cytotoxicity against human THP-1 cells to IC50 for anti-leishmanial activity against luciferase expressing intracellular amastigote stage of Leishmania infantum MHOM/MA/67/ITMAP-263 infected in human THP-1 cells; assay type: toxicity, cell-based; conditions: read-out: Ratio CC50/IC50
[9] = Cytotoxicity against human A549 cells assessed as reduction in cell viability at 10 uM incubated for 24 hrs by Cell-Titer Glo luminescence assay; assay type: toxicity, cell-based; conditions: read-out: INH
[10] = Cytotoxicity against human HEK293 cells assessed as reduction in cell viability at 10 uM incubated for 24 hrs by Cell-Titer Glo luminescence assay; assay type: toxicity, cell-based; conditions: read-out: INH
CYP3A4 = CYP3A4 (Homo sapiens, UniProt P08684); test: Inhibition of human CYP3A4 expressed in insect cell microsomes at 10 uM preincubated for 20 mins followed by NADP+ and substrate addition and measured after 10 mins by fluorescence based analysis; assay type: ADME, Microsome; conditions: recombinant human CYP3A4 expressed in insect cell microsomes, time 30 min
Chain of CYP3A4 (P08684 whole entry): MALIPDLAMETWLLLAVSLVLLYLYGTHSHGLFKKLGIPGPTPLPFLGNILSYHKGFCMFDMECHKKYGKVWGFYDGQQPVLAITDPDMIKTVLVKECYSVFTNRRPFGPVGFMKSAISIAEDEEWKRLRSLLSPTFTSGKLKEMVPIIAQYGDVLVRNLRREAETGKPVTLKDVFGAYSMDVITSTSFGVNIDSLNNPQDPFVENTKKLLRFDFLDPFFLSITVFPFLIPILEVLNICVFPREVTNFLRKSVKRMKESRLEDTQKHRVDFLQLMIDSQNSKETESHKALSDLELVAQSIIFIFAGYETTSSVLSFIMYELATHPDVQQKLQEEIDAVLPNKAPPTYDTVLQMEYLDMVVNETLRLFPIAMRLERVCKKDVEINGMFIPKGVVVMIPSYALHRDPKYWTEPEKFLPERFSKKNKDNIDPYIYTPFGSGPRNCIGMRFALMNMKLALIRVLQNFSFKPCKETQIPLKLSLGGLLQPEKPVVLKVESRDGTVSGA

hERG (KCNH2) = hERG (KCNH2) (Homo sapiens, UniProt Q12809); test: Displacement of tracer from hERG extracted from membrane at 10 uM incubated for 2 hrs by fluorescence polarization assay; assay type: toxicity, cell membranes; conditions: hERG membrane preparation, probe tracer (not named)
Chain of hERG (KCNH2) (Q12809 whole entry): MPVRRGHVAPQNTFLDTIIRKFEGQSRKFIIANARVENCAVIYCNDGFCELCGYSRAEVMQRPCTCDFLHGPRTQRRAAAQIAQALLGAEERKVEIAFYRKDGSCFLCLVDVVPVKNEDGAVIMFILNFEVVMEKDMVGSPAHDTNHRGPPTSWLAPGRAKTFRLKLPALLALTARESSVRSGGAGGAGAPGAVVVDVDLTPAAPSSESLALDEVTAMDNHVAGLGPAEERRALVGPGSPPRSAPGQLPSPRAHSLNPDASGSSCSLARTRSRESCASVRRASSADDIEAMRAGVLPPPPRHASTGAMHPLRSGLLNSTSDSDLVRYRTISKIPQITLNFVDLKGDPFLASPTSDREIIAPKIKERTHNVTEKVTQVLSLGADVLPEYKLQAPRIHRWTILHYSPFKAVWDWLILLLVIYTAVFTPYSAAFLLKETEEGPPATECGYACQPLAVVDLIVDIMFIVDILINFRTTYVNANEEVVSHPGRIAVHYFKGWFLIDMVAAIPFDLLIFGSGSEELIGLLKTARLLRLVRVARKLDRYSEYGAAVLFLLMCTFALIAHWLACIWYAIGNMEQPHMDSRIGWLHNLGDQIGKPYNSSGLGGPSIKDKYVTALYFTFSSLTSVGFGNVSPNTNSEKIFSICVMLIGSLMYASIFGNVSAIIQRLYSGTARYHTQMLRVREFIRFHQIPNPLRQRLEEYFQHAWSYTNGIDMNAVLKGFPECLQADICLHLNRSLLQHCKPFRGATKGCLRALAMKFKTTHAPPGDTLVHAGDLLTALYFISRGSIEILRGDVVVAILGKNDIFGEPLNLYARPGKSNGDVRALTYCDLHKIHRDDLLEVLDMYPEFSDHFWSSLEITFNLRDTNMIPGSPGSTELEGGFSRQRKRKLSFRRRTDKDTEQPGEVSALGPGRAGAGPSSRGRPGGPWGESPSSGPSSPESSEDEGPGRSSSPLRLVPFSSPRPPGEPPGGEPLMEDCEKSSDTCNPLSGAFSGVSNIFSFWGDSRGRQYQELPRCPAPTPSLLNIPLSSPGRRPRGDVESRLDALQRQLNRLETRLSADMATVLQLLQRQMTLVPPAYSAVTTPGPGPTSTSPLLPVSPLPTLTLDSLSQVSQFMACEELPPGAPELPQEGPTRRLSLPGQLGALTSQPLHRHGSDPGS

SMILES: COc1ccc(Nc2ncnc3c(N/N=C/c4ccc(O)c(O)c4)ncnc23)cc1
- IC50 (Trypanosoma brucei): 550 nM
- CC50 at 72 h [1]: > 100000 nM
- selectivity ratio [2]: > 182
- inhibition at 10 µM (Leishmania infantum [3]): 98%
- IC50 (Leishmania infantum [4]): 990 nM
- inhibition at 10 µM (Leishmania infantum [5]): 87%
- IC50 (Leishmania infantum [6]): 3130 nM
- selectivity ratio [7]: > 101
- selectivity ratio [8]: > 32
- cytotoxicity at 24 h, 10 µM [9]: 39%
- cytotoxicity at 24 h, 10 µM [10]: 18%
- inhibition at 10 min, 10 µM (CYP3A4): 2%
- inhibition at 2 h, 10 µM (hERG (KCNH2)): 36%

SMILES: COc1cccc(Nc2ncnc3c(N/N=C/c4ccc(O)c(O)c4)ncnc23)c1
- IC50 (Trypanosoma brucei): 1280 nM
- CC50 at 72 h [1]: > 50000 nM
- selectivity ratio [2]: > 39
- inhibition at 10 µM (Leishmania infantum [3]): 94%
- IC50 (Leishmania infantum [4]): 1670 nM
- inhibition at 10 µM (Leishmania infantum [5]): 62%
- IC50 (Leishmania infantum [6]): 8510 nM
- selectivity ratio [7]: 30
- selectivity ratio [8]: 6
- cytotoxicity at 24 h, 10 µM [9]: 22%
- cytotoxicity at 24 h, 10 µM [10]: 7%
- inhibition at 10 min, 10 µM (CYP3A4): 2%
- inhibition at 2 h, 10 µM (hERG (KCNH2)): 18%

SMILES: COc1cccc(Nc2ncnc3c(N/N=C/c4ccc(OC)c(OC)c4)ncnc23)c1
- IC50 (Trypanosoma brucei): 1320 nM
- CC50 at 72 h [1]: > 50000 nM
- selectivity ratio [2]: > 38
- inhibition at 10 µM (Leishmania infantum [3]): 98%
- IC50 (Leishmania infantum [4]): 1440 nM
- inhibition at 10 µM (Leishmania infantum [5]): 34%
- IC50 (Leishmania infantum [6]): > 20000 nM
- selectivity ratio [7]: > 35
- cytotoxicity at 24 h, 10 µM [9]: 40%
- cytotoxicity at 24 h, 10 µM [10]: 18%
- inhibition at 10 min, 10 µM (CYP3A4): 0%
- inhibition at 2 h, 10 µM (hERG (KCNH2)): 35%

SMILES: COc1ccc(Nc2ncnc3c(N/N=C/c4cc(O)c(O)c(O)c4)ncnc23)cc1
- IC50 (Trypanosoma brucei): 540 nM
- CC50 at 72 h [1]: > 100000 nM
- selectivity ratio [2]: > 185
- inhibition at 10 µM (Leishmania infantum [3]): 94%
- IC50 (Leishmania infantum [4]): 200 nM
- inhibition at 10 µM (Leishmania infantum [5]): 41%
- IC50 (Leishmania infantum [6]): > 20000 nM
- selectivity ratio [7]: > 502
- cytotoxicity at 24 h, 10 µM [9]: 12%
- cytotoxicity at 24 h, 10 µM [10]: 3%
- inhibition at 10 min, 10 µM (CYP3A4): 0%
- inhibition at 2 h, 10 µM (hERG (KCNH2)): 48%

SMILES: COc1ccc(Nc2ncnc3c(N/N=C/c4ccc(OC)c(OC)c4)ncnc23)cc1
- IC50 (Trypanosoma brucei): 2440 nM
- CC50 at 72 h [1]: > 100000 nM
- selectivity ratio [2]: > 41
- inhibition at 10 µM (Leishmania infantum [3]): 98%
- IC50 (Leishmania infantum [4]): 1930 nM
- inhibition at 10 µM (Leishmania infantum [5]): 85%
- IC50 (Leishmania infantum [6]): 3000 nM
- selectivity ratio [7]: > 52
- selectivity ratio [8]: > 33
- cytotoxicity at 24 h, 10 µM [9]: 23%
- cytotoxicity at 24 h, 10 µM [10]: 12%
- inhibition at 10 min, 10 µM (CYP3A4): 0%
- inhibition at 2 h, 10 µM (hERG (KCNH2)): 0%

SMILES: CCCCCCCCCCCCCCCCOP(=O)([O-])OCC[N+](C)(C)C [MILTEFOSINE]
- inhibition at 10 µM (Leishmania infantum [3]): 97%
- IC50 (Leishmania infantum [4]): 11900 nM
- inhibition at 10 µM (Leishmania infantum [5]): 99%
- IC50 (Leishmania infantum [6]): 710 nM
- selectivity ratio [7]: 2.5
- selectivity ratio [8]: 42
